Measured values reported in patent US10155754B2, “Substituted 2-imino-1,3-thiazolidin-4-ones as N-arachidonoylethanolamine cellular uptake inhibitors” (UNIVERSITAT BERN, priority 2014, dated 2018).

Tests used:
[1] = tested on: AEA cellular uptake (U937 cells); assay: [3H]-AEA cellular uptake inhibition in U937 cells; type: cell-based; conditions: Homo sapiens, U-937, U937 cells, final 100 nM AEA with 0.5 nM [3H]-AEA, 15 min at 37° C.; read-out: AEA uptake IC50
How it was run: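 U937 cells (0.5×10^6 per sample) pre-incubated with compound (100 pM–100 μM, triplicates) for 15 min at 37 °C, then given 100 nM AEA including 0.5 nM [3H]-AEA for 15 min. Filtration, washing and scintillation counting of cell-associated radioactivity; IC50 by four-parameter nonlinear regression.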

FAAH = target: T1, FAAH (Homo sapiens, UniProt O00519); assay: FAAH activity: hydrolysis of [3H]-AEA in U937 cell homogenates; type: biochemical; conditions: [3H]-AEA hydrolysis, final 100 nM AEA, read-out: FAAH inhibition IC50
T1 construct: endogenous in cells; host or cells: U937 cell homogenate
T1 sequence (O00519 1-579): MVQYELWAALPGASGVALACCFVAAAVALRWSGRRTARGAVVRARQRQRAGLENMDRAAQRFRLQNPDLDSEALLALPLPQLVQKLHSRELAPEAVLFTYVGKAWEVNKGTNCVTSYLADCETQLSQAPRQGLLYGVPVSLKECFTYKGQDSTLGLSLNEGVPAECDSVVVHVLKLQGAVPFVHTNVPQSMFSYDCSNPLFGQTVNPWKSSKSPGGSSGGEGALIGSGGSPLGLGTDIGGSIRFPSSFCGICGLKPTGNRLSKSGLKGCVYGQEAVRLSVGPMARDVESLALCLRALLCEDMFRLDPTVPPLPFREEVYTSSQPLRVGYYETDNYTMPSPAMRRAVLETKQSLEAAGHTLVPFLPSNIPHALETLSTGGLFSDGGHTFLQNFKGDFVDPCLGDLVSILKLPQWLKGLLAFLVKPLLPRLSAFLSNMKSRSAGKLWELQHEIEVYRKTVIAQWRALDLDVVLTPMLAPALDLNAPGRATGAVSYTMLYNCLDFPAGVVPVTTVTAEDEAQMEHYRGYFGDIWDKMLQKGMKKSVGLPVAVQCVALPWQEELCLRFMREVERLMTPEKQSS
Experimental: Hydrolysis of [^3H]-AEA by FAAH was determined as previously described in cell homogenates of U937 cells (0.18 mg protein) (Omeir et al., 1999, Biochem Biophys Res Commun, 264, 316-20; Mor et al., 2004, J Med Chem, 47, 4998-5008). Protein amounts of cell homogenates corresponded to 0.5×10^6 cells (U937), to assure best possible comparability of IC50 values as used for the AEA cellular uptake assays. URB597 was used as positive control. Protein quantification was performed using a BCA assay (Thermo Scientific). Enzyme activity was assessed by addition of vehicle or compounds in 10 μL DMSO to 490 μL homogenate in 10 mM Tris HCl, 1 mM EDTA, 0.1% (w/v) BSA fatty acid free, pH=8 and incubation for 15 min at 37° C. After, a mixture of AEA plus [ethanolamine-1-^3H]-AEA (0.5 nM) at final 100 nM was added to the homogenates and incubated for 15 min at 37° C. The reaction was stopped by addition of 1 mL ice-cold CHCl3:MeOH (1:1) followed by vigorous vortexing. Phase separation was achieved by centrifugation at 10'000×g at 4° C. for 10 min. Radioactivity of the separated aqueous phase (upper phase) containing [^3H-ethanolamine] or [^3H-glycerol] was measured by liquid scintillation counting on a Tri-Carb 2100 TR liquid scintillation analyzer after addition of 3.5 mL Ultima Gold scintillation cocktail (PerkinElmer Life Sciences). Results are expressed as hydrolysis of tritium substrate in percent of vehicle treated control. IC50 values were calculated by GraphPad®. Data are reported as means of n=3 independent experiments performed in triplicates.

SMILES	IC50 [1] [nM]	IC50 (FAAH) [nM]
CC(C)CN1C(=O)/C(=C/c2ccc3c(c2)OCCO3)S/C1=N\c1ccc(F)cc1 [24_B_X, (2Z,5Z)-2-(4-fluorophenylimino)-5-((2,3-dihydrobenzo[b][1,4]dioxin-6-yl)methylene)-3-isobutylthiazolidin-4-one]	162	> 100000
O=C1/C(=C/c2ccc3c(c2)OCCO3)S/C(=N\Cc2ccccc2)N1c1ccccc1 [24_C_N, (2Z,5Z)-2-(benzylimino)-5-((2,3-dihydrobenzo[b][1,4]dioxin-6-yl)methylene)-3-phenylthiazolidin-4-one]	170	1590
COc1ccc(/N=C2\S/C(=C\c3ccc4c(c3)OCCO4)C(=O)N2c2ccccc2)cc1 [24_F_N, (2Z,5Z)-2-(4-methoxyphenylimino)-5-((2,3-dihydrobenzo[b][1,4]dioxin-6-yl)methylene)-3-phenylthiazolidin-4-one]	939	> 100000
Cc1ccc(N2C(=O)/C(=C/c3ccc4c(c3)OCCO4)S/C2=N\c2ccccc2)cc1 [24_N_A, (2Z,5Z)-5-((2,3-dihydrobenzo[b][1,4]dioxin-6-yl)methylene)-2-(phenylimino)-3-p-tolylthiazolidin-4-one]	334	> 100000
O=C1/C(=C/c2ccc3c(c2)OCCO3)S/C(=N\c2ccccc2)N1c1ccc(F)cc1 [24_N_B, (2Z,5Z)-3-(4-fluorophenyl)-5-((2,3-dihydrobenzo[b][1,4]dioxin-6-yl)methylene)-2-(phenylimino)thiazolidin-4-one]	667	> 100000
O=C1/C(=C/c2ccc3c(c2)OCCO3)S/C(=N\c2ccccc2)N1C1CCCCC1 [24_N_I, (2Z,5Z)-3-cyclohexyl-5-((2,3-dihydrobenzo[b][1,4]dioxin-6-yl)methylene)-2-(phenylimino)thiazolidin-4-one]	462	> 100000
CC(C)CN1C(=O)/C(=C/c2ccc3c(c2)OCCO3)S/C1=N\c1ccccc1 [24_N_X, (2Z,5Z)-5-((2,3-dihydrobenzo[b][1,4]dioxin-6-yl)methylene)-3-isobutyl-2-(phenylimino)thiazolidin-4-one]	172	> 100000
Cc1ccc(N2C(=O)/C(=C/c3ccc4c(c3)OCCO4)S/C2=N\Cc2ccc(F)cc2)cc1 [24_P_A, (2Z,5Z)-2-(4-fluorobenzylimino)-5-((2,3-dihydrobenzo[b][1,4]dioxin-6-yl)methylene)-3-p-tolylthiazolidin-4-one]	176	1510
O=C1/C(=C/c2ccc3c(c2)OCCO3)S/C(=N\Cc2ccc(F)cc2)N1c1ccc(F)cc1 [24_P_B, (2Z,5Z)-2-(4-fluorobenzylimino)-3-(4-fluorophenyl)-5-((2,3-dihydrobenzo[b][1,4]dioxin-6-yl)methylene)thiazolidin-4-one]	1040	11200
O=C1/C(=C/c2ccc3c(c2)OCCO3)S/C(=N\Cc2ccc(F)cc2)N1C1CCCCC1 [24_P_I, (2Z,5Z)-2-(4-fluorobenzylimino)-3-cyclohexyl-5-((2,3-dihydrobenzo[b][1,4]dioxin-6-yl)methylene)thiazolidin-4-one]	87	170
O=C1/C(=C/c2ccc3c(c2)OCCO3)S/C(=N\Cc2ccc(F)cc2)N1c1ccc(Cl)cc1 [24_P_L, (2Z,5Z)-2-(4-fluorobenzylimino)-3-(4-chlorophenyl)-5-((2,3-dihydrobenzo[b][1,4]dioxin-6-yl)methylene)thiazolidin-4-one]	51	617
O=C1/C(=C/c2ccc3c(c2)OCCO3)S/C(=N\Cc2ccc(F)cc2)N1c1ccccc1 [24_P_N, (2Z,5Z)-2-(4-fluorobenzylimino)-5-((2,3-dihydrobenzo[b][1,4]dioxin-6-yl)methylene)-3-phenylthiazolidin-4-one]	530	912
CC(C)CN1C(=O)/C(=C/c2ccc3c(c2)OCCO3)S/C1=N\Cc1ccc(F)cc1 [24_P_X, (2Z,5Z)-2-(4-fluorobenzylimino)-5-((2,3-dihydrobenzo[b][1,4]dioxin-6-yl)methylene)-3-isobutylthiazolidin-4-one]	509	2630
COc1ccc(C/N=C2\S/C(=C\c3ccc4c(c3)OCCO4)C(=O)N2c2ccc(C)cc2)cc1 [24_Q_A, (2Z,5Z)-2-(4-methoxybenzylimino)-5-((2,3-dihydrobenzo[b][1,4]dioxin-6-yl)methylene)-3-p-tolylthiazolidin-4-one]	164	> 100000
COc1ccc(C/N=C2\S/C(=C\c3ccc4c(c3)OCCO4)C(=O)N2c2ccc(F)cc2)cc1 [24_Q_B, (2Z,5Z)-2-(4-methoxybenzylimino)-3-(4-fluorophenyl)-5-((2,3-dihydrobenzo[b][1,4]dioxin-6-yl)methylene)thiazolidin-4-one]	33	1290
COc1ccc(C/N=C2\S/C(=C\c3ccc4c(c3)OCCO4)C(=O)N2C2CCCCC2)cc1 [24_Q_I, (2Z,5Z)-2-(4-methoxybenzylimino)-3-cyclohexyl-5-((2,3-dihydrobenzo[b][1,4]dioxin-6-yl)methylene)thiazolidin-4-one]	35	37
COc1ccc(C/N=C2\S/C(=C\c3ccc4c(c3)OCCO4)C(=O)N2c2ccc(Cl)cc2)cc1 [24_Q_L, (2Z,5Z)-2-(4-methoxybenzylimino)-3-(4-chlorophenyl)-5-((2,3-dihydrobenzo[b][1,4]dioxin-6-yl)methylene)thiazolidin-4-one]	85	813
COc1ccc(C/N=C2\S/C(=C\c3ccc4c(c3)OCCO4)C(=O)N2c2ccccc2)cc1 [24_Q_N, (2Z,5Z)-2-(4-methoxybenzylimino)-5-((2,3-dihydrobenzo[b][1,4]dioxin-7-yl)methylene)-3-phenylthiazolidin-4-one]	373	437
COc1ccc(C/N=C2\S/C(=C\c3ccc4c(c3)OCCO4)C(=O)N2CC(C)C)cc1 [24_Q_X, (2Z,5Z)-2-(4-methoxybenzylimino)-5-((2,3-dihydrobenzo[b][1,4]dioxin-6-yl)methylene)-3-isobutylthiazolidin-4-one]	137	427
Cc1ccc(/N=C2\S/C(=C\c3ccc4c(cnn4C)c3)C(=O)N2C2CCCCC2)cc1 [28_A_I, (2Z,5Z)-2-(p-tolylimino)-3-cyclohexyl-5-((1-methyl-1H-indazol-5-yl)methylene)thiazolidin-4-one]	389	> 100000
Cc1ccc(/N=C2\S/C(=C\c3ccc4c(cnn4C)c3)C(=O)N2CC(C)C)cc1 [28_A_X, (2Z,5Z)-2-(p-tolylimino)-3-isobutyl-5-((1-methyl-1H-indazol-5-yl)methylene)thiazolidin-4-one]	351	> 100000
Cc1ccc(/N=C2\S/C(=C\c3ccc4ncsc4c3)C(=O)N2C2CCCCC2)cc1 [32_A_I, (2Z,5Z)-2-(p-tolylimino)-5-((benzo[d]thiazol-6-yl)methylene)-3-cyclohexylthiazolidin-4-one]	341	> 100000
Cc1ccc(/N=C2\S/C(=C\c3ccc4ncsc4c3)C(=O)N2CC(C)C)cc1 [32_A_X, (2Z,5Z)-2-(p-tolylimino)-5-((benzo[d]thiazol-6-yl)methylene)-3-isobutylthiazolidin-4-one]	327	> 100000
O=C1/C(=C/c2ccc3[nH]cnc3c2)S/C(=N\c2ccccc2)N1c1ccccc1 [compound 04, (2Z,5Z)-5-((1H-benzo[d]imidazol-5-yl)methylene)-3-phenyl-2-(phenylimino)thiazolidin-4-one]	194	> 100000
O=C1/C(=C/c2ccc3c(c2)OCCO3)S/C(=N\c2ccccc2)N1c1ccccc1 [compound 24, (2Z,5Z)-5-((2,3-dihydrobenzo[b][1,4]dioxin-6-yl)methylene)-3-phenyl-2-(phenylimino)thiazolidin-4-one]	817	> 100000
